Where two headings read alike, the source gives them in different places.
Columns and labels:
Assay type in all cases: in vivo
Phytophthora infestans [1] = settings: tomato seedlings, sprayed to run-off 17 h after inoculation
Plasmopara viticola = experiment: Test A: grape downy mildew, test suspension sprayed after inoculation, visual disease rating; settings: grape seedlings, sprayed to run-off 24 h after inoculation
Phytophthora infestans [2] = settings: tomato seedlings, sprayed to run-off the day before inoculation
[3] = no asterisk, test concentration not given

Cc1cc(C(F)(F)F)nn1CC(=O)N1CCC(c2nc(CN(C)[C@@H]3CCCc4ccccc43)cs2)CC1 [Compound 1, 1-[4-[4-[[methyl[(1R)-1,2,3,4-tetrahydro-1-naphthalenyl]amino]methyl]-2-thiazolyl]-1-piperidinyl]-2-[5-methyl-3-(trifluoromethyl)-1H-pyrazol-1-yl]ethanone]
Test C rating (disease control) (Phytophthora infestans [1]; [3]): 99%
Test A rating (disease control) (Plasmopara viticola; [3]): 72%
Test B rating (disease control) (Phytophthora infestans [2]; [3]): 100%

Cc1cc(C(F)(F)F)nn1CC(=O)N1CCC(c2nc(CN[C@@H]3CCCc4ccccc43)cs2)CC1 [Compound 2, 2-[5-methyl-3-(trifluoromethyl)-1H-pyrazol-1-yl]-1-[4-[4-[[[(1R)-1,2,3,4-tetrahydro-1-naphthalenyl]amino]methyl]-2-thiazolyl]-1-piperidinyl]ethanone]
Test C rating (disease control) (Phytophthora infestans [1]; [3]): 93%
Test A rating (disease control) (Plasmopara viticola; [3]): 28%
Test B rating (disease control) (Phytophthora infestans [2]; [3]): 100%

CC(=O)N(Cc1csc(C2CCN(C(=O)Cn3nc(C(F)(F)F)cc3C)CC2)n1)[C@@H]1CCCc2ccccc21 [Compound 3, N-[[2-[1-[2-[5-methyl-3-(trifluoromethyl)-1H-pyrazol-1-yl]acetyl]-4-piperidinyl]-4-thiazolyl]methyl]-N-[(1R)-1,2,3,4-tetrahydro-1-naphthalenyl]acetamide]
Test C rating (disease control) (Phytophthora infestans [1]; [3]): 53%
Test A rating (disease control) (Plasmopara viticola; [3]): 55%
Test B rating (disease control) (Phytophthora infestans [2]; [3]): 85%

Cc1cc(C(F)(F)F)nn1CC(=O)N1CCC(c2nc(CN(C=O)[C@@H]3CCCc4ccccc43)cs2)CC1 [Compound 4, N-[[2-[1-[2-[5-methyl-3-(trifluoromethyl)-1H-pyrazol-1-yl]acetyl]-4-piperidinyl]-4-thiazolyl]methyl]-N-[(1R)-1,2,3,4-tatrahydro-1-naphthalenyl]formamide]
Test C rating (disease control) (Phytophthora infestans [1]; [3]): 26%
Test A rating (disease control) (Plasmopara viticola; [3]): 0%
Test B rating (disease control) (Phytophthora infestans [2]; [3]): 87%

Cc1cc(C(F)(F)F)nn1CCC(=O)N1CCC(c2nc(C(=O)N(C)[C@@H]3CCCc4ccccc43)cs2)CC1 [Compound 5, N-methyl-2-[1-[3-[5-methyl-3-(trifluoromethyl)-1H-pyrazol-1-yl]-1-oxopropyl]-4-piperidinyl]-N-[(1R)-1,2,3,4-tetrahydro-1-naphthalenyl]-4-thiazolecarboxamide]
Test C rating (disease control) (Phytophthora infestans [1]; compound tested at 40 ppm): 0%
Test A rating (disease control) (Plasmopara viticola; compound tested at 40 ppm): 17%
Test B rating (disease control) (Phytophthora infestans [2]; compound tested at 40 ppm): 57%

CCOC(=O)C(C(=O)N1CCC(c2nc(C(=O)N(C)C3CCCc4ccccc43)cs2)CC1)n1nc(C(F)(F)F)cc1C (stereo not drawn) [Compound 6, ethyl 4-[4-[[methyl(1,2,3,4-tetrahydro-1-naphthalenyl)amino]carbonyl]-2-thiazolyl]-α-[5-methyl-3-(trifluoromethyl)-1H-pyrazol-1-yl]-β-oxo-1-piperidinepropanoate]
Test C rating (disease control) (Phytophthora infestans [1]; compound tested at 40 ppm): 0%
Test A rating (disease control) (Plasmopara viticola; compound tested at 40 ppm): 72%
Test B rating (disease control) (Phytophthora infestans [2]; compound tested at 40 ppm): 17%

From patent publication US8420673B2, “Fungicidal amides” (E I du Pont de Nemours and Company, priority 2007, dated 2013)
